{
  "source": "patent US20250129116A1",
  "about": "“CYCLOPROPANOL AS A BIOORTHOGONAL WARHEAD FOR ELECTROCHEMICALLY CONTROLLED BIOCONJUGATION APPLICATIONS” (UNIVERSITY OF SOUTH CAROLINA, priority 2023, published 2025)",
  "key": {"Vero cells [1]": {"test_system": "Vero cells", "assay": "CellTiter Blue (CTB) cell viability assay", "format": "cell-based", "conditions": "24 h", "description": "The in vitro cytotoxicity test of CPol-choline analog or other chemicals on Vero cells was determined by CellTiter Blue (CTB) cell viability assay (Promega). Briefly, Vero cells were cultured in 96-well plates at a density of 12.5×10^3 cells per well one day prior experiment. On the following day, the media was replaced by fresh 10% FBS DMEM containing the choline analogs at the concentrations of 0.2, 0.4, 0.8, 1, and 5 mM and incubated for 24 h at 37° C. The cells without the compounds were used as controls. NaI and I2 were also tested at the concentrations varied from 0.01 to 10,000 μM. The experiments were performed in quadruplicate. After 24 h of incubation, the media in each well was replaced by prewarmed media containing 10% CTB reagent and incubated for 2 h at 37° C. and 5% CO2. The medium containing CTB without cells was used as a negative control. Fluorescence intensity was then measured at 560/590 nm (Ex/Em) using SpectraMax M2 Multi-Mode microplate reader (Molecular Devices) to indicate cell viability."}, "Hela cells": {"test_system": "Hela cells", "assay": "Metabolic incorporation of CPol-choline, lipidomic experiments and LC-MS", "format": "cell-based", "conditions": "5 mM, 24 h", "description": "(§1) Three million cells (Vero, HeLa, or NIH-3T3) were seeded into a 10-cm cell culture dish and allowed attachment for 24 h in a complete medium (DMEM with 10% FBS) in a CO2 incubator. When cells reached 70-80% confluency, choline analog (PCPol-Cho or ECPol-Cho) at a final concentration of 5 mM was added into cells and co-cultured for another 24 h. The adhered cells were washed with 5 mL ice-cold DPBS (Dulbecco's Phosphate-Buffered Saline, CORNING), and were scratched into ice-cold PBS (5 mL), pooled in a centrifuge tube, and centrifuged at 1,000 rpm for 5 min at room temperature. The supernatant was then aspirated off and the lipids were extracted from the resultant pellet using the modified Bligh Dyer method. Briefly, the cell pellet was treated with a mixture of chloroform and methanol (1 mL of a 1:2 v/v solution), vortexed for 1 min, followed by addition of chloroform (0.5 mL) and 1 M NaCl (0.5 mL), and again vortexed for 1 min. Phase separation was achieved by centrifuging the mixture at 3,220 g at 4° C. for 30 min. The lower lipid-enriched organic layer was separated and dried using nitrogen at room temperature. For all LC-MS/MS analyses, the dried lipids were dissolved in a mixture of chloroform and methanol (200 μL of a 1:1 v/v solution). For all control experiments, the procedure described above was followed without administration of any choline derivatives.\n(§2) Choline stands as the predominant head group in phospholipids which are the principal components of all cellular membranes. […] (FIG. 5A). The metabolic incorporation efficiency of CPol-choline was evaluated through lipidomic experiments (FIG. 15A) and LC-MS (FIG. 15B)."}, "NIH-3T3 cells": {"test_system": "NIH-3T3 cells", "assay": "Metabolic incorporation of CPol-choline, lipidomic experiments and LC-MS", "format": "cell-based", "conditions": "5 mM, 24 h", "description": "as §1, §2"}, "Vero cells [2]": {"test_system": "Vero cells", "assay": "Metabolic incorporation of CPol-choline, lipidomic experiments and LC-MS", "format": "cell-based", "conditions": "5 mM, 24 h", "description": "as §1, §2"}, "Vero cells [3]": {"test_system": "Vero cells", "assay": "Electrochemically assisted cell labeling, FTSCA fluorescence", "format": "cell-based", "conditions": "CPol+NaI+Echem group: 5 mM CPol-choline, NaI 100 μM, 0.7 V, 50 μM FTSCA, plate reader", "description": "Vero cells were cultured in a 100-mm cell culture dish and allowed attachment overnight in a complete medium (DMEM with 10% FBS). When cells reached 60-70% confluency, CPol-choline analog at a final concentration of 5 mM was added into Vero cells and co-cultured for 24 h. The labeled Vero cells were harvested into 5 mL Dulbecco's Phosphate-Buffered Saline (DPBS 1×, CORNING). The cell numbers were counted using a hemocytometer. The cell concentration at 6×10^6 cells was used in the experiment. Subsequently, the Vero cell suspension was treated with NaI (100 μM) and low cell potential (0.7 V) under divided H-cell for 10 min. […] For the fluorescence imaging, the cells in a 24-well plate were fixed with 70% ethanol at −20° C. for 10 min, washed with DPBS three times, and then reacted with 50 μM FTSCA for 1 h at room temperature. After removing the unbound FTSCA, the cells were imaged by a fluorescence microscope (Olympus IX81, Shinjuku-ku, Tokyo, Japan). […] After washing with DPBS, the plate was read using a plate reader (Tecan Infinite M200 microplate reader) with an excitation wavelength of 491 nm and emission cutoff at 520 nm. […]\nThe intensity of this fluorescence was quantified using a plate reader and visualized using fluorescence microscopy (FIG. 6A). […]"}, "[4]": {"target": "bovine serum albumin (BSA) (Bos taurus, UniProt P02769)", "sequence (P02769 25-607)": "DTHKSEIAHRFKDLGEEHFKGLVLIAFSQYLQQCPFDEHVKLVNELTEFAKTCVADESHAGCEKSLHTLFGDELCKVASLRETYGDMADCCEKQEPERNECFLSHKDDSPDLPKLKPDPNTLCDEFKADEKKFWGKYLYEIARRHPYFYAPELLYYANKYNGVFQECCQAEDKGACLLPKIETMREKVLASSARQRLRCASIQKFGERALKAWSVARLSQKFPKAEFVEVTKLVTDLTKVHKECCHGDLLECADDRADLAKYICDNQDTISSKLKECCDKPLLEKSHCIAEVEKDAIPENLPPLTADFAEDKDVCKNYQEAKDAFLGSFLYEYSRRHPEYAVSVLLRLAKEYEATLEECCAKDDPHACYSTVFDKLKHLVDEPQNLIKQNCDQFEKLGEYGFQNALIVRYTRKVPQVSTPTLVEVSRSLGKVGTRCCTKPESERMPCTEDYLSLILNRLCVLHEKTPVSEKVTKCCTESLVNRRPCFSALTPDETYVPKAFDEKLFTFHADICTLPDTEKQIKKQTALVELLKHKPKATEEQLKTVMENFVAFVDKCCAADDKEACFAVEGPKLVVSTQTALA", "assay": "Electrochemically promoted bioconjugation, MALDI-TOF MS", "format": "biochemical", "conditions": "NaX (X=I or Br), 0.8 V or 1.2 V, phosphate buffer 0.1 M pH 7.0", "description": "(§3) Mass spectra were generated with a MALDI-TOF mass spectrometer (rapifleX MALDI Tissuetyper from BRUKER) equipped with a solid-state smart beam and operated in a linear delayed extraction positive ion mode. The samples of conjugated peptide were concentrated using IMCStips (1 mL, IMCS company) and eluted with 70% acetonitrile/0.1% trifluoracetic acid (TFA) following the manufacturer protocol. Of note, the samples of conjugated proteins and viruses were denatured by incubating with guanidinium chloride (8 M) for 5 min at RT, followed by the removal of salts and elution using IMCStips. The resultant samples were spotted on a MALDI plate. These spots were analyzed by MALDI-TOF MS spectrometer with the matrix (Vsample: Vmatrix=1:1). Matrix of sinapic acid in 50% acetonitrile/0.1% TFA was used for protein measurements, and the matrix of a-Cyano-4-hydroxycinnamic acid in 50% acetonitrile/0.1% TFA was used for peptide measurements.\n(§4) To further access the compatibility of biomolecules and various CPol derivatives within the electrochemical bioconjugation process, a range of biomolecules including peptides, proteins, and TMV, along with different CPol derivatives, were subjected to the NaI or NaBr redox catalyst and a low cell potential of 0.8 V or 1.2 V individually (FIG. 4A). Electrochemical bioconjugation was employed for labeling angiotensin I, which is a peptide hormone responsible for vasoconstriction and evaluated in blood pressure. […] However, when modifying angiotensin I with NaI at a voltage of 0.8V, certain side reactions may occur. […] Thus, we conducted a preliminary reaction involving bivalirudin or lysozyme, compound 1, and the resulting Br-substituted ketone without the application of electrochemical conditions (FIGS. 11-12).\n(§5) Subsequently, the electrochemical bioconjugation approach was evaluated on lysozyme, a 14 kDa cationic protein. […] Additionally, the electrochemical bioconjugation on bovine serum albumin (BSA) was also evaluated. […] Besides, the conjugated biomolecule was conjugated with biotin-oxyamine under weak acidic conditions (m/z=18063 in FIG. 4F), which can be used in further cell labeling or protein proteomic analysis."}, "lysozyme": {"target": "lysozyme (Gallus gallus, UniProt P00698)", "sequence (P00698 19-147)": "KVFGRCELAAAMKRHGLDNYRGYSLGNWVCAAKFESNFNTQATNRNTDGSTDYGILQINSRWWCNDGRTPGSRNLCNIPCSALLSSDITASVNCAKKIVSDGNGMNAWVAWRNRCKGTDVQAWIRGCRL", "assay": "Electrochemically promoted bioconjugation, MALDI-TOF MS", "format": "biochemical", "conditions": "NaBr, constant voltage 1.2 V, phosphate buffer 0.1 M pH 7.0", "description": "as §3, §4, §5"}, "[5]": {"test_system": "wild-type tobacco mosaic virus (wt-TMV)", "assay": "Electrochemically promoted bioconjugation, MALDI-TOF MS", "format": "biochemical", "description": "To purify wild-type plant virus tobacco mosaic virus (TMV), frozen TMV leaves were crushed and blended. Approximately 3 volumes of phosphate buffer were added to the crushed leaves with an addition of 0.2-0.3% 2-mercaptoethanol. The leaves were blended for 2 min at a low setting and then switched to the highest setting for an additional 3 min. The blended plant sap was filtered through two layers of cheesecloth and then flow through was centrifuged at 10500 rpm (Sorvall SLA 1500) at 4° C. for 20 min. The resulting supernatant was then pooled together and mixed with n-butanol/chloroform at a ratio of 2:1:1 (plant sap/n-butanol/chloroform). The homogenate was stirred for 30 min on ice and then centrifuged at 6000 rpm (SLA 4000) for 10 min at 4° C. The upper aqueous layer was transferred to a beaker, and the virus was precipitated by adding 0.2 M NaCl and 8% (wt/vol) PEG-8000. The mixture was stirred on ice for 60 min and centrifuged at 12000 rpm (Sorvall SLA1500) for 20 min. The white precipitant was then resuspended with 10 mM K phos buffer (pH 7.8). The solution was centrifuged at 9,500 rpm for 15 min at 4° C. to remove excess PEG. The supernatant was transferred to ultracentrifuge tubes (Beckman 50.2 Ti) and the virus was pelleted at 42,000 rpm at 4° C. for 3 h. The virus pellet was resuspended in 100 mM K phos buffer (pH 7.8) overnight at 4° C. UV absorbance was measured at 260 and 280 nm wavelengths to determine the concentration of the virus. […] The purified virus solutions were stored at 4° C.\nMass spectra were generated with a MALDI-TOF mass spectrometer (rapifleX MALDI Tissuetyper from BRUKER) equipped with a solid-state smart beam and operated in a linear delayed extraction positive ion mode. […] These spots were analyzed by MALDI-TOF MS spectrometer with the matrix (Vsample: Vmatrix=1:1). […]\nSubsequently, the electrochemical bioconjugation approach was evaluated on lysozyme, a 14 kDa cationic protein. […] Additionally, the electrochemical bioconjugation on bovine serum albumin (BSA) was also evaluated. […]"}, "angiotensin I": {"target": "T1, angiotensin I (Homo sapiens, UniProt P01019)", "T1 construct": "labeling angiotensin I, which is a peptide hormone responsible for vasoconstriction", "assay": "Electrochemically promoted bioconjugation, MALDI-TOF MS and LC-MS", "format": "biochemical", "conditions": "NaBr, constant voltage 1.2 V", "description": "as §3, with “Matrix of sinapic acid in 50% acetonitrile/0.1% TFA was used for protein measurements, and the matrix of a-Cyano-4-hydroxycinnamic acid in 50% acetonitrile/0.1% TFA was used for peptide measurements.” left out\n(§6) To further access the compatibility of biomolecules and various CPol derivatives within the electrochemical bioconjugation process, a range of biomolecules including peptides, proteins, and TMV, along with different CPol derivatives, were subjected to the NaI or NaBr redox catalyst and a low cell potential of 0.8 V or 1.2 V individually (FIG. 4A). Electrochemical bioconjugation was employed for labeling angiotensin I, which is a peptide hormone responsible for vasoconstriction and evaluated in blood pressure. […]"}, "bivalirudin": {"test_system": "bivalirudin", "assay": "Electrochemically promoted bioconjugation, MALDI-TOF MS and LC-MS", "format": "biochemical", "conditions": "NaBr, constant voltage 1.2 V, batch reaction", "description": "as §3, with “Matrix of sinapic acid in 50% acetonitrile/0.1% TFA was used for protein measurements, and the matrix of a-Cyano-4-hydroxycinnamic acid in 50% acetonitrile/0.1% TFA was used for peptide measurements.” left out\nas §6"}},
  "data": [
    {"smiles": "Br.C[N+](C)(CCO)CCCC1(O)CC1", "note": "[CPol-choline analog]", "values": [
      {"measurement": "cytotoxicity on Vero cells", "setting": "Vero cells [1]; choline analog 0.2-5 mM", "result": "no cytotoxicity was observed"},
      {"measurement": "metabolic incorporation into cells", "setting": "Hela cells", "result": "successfully incorporated"},
      {"measurement": "metabolic incorporation into cells", "setting": "NIH-3T3 cells", "result": "successfully incorporated"},
      {"measurement": "metabolic incorporation into cells", "setting": "Vero cells [2]", "result": "successfully incorporated"},
      {"measurement": "intracellular fluorescence intensity after labeling with FTSCA", "setting": "Vero cells [3]", "result": "strongest fluorescent intensity"}
    ]},
    {"smiles": "OC1(c2ccccc2)CC1", "note": "[Formula I-1, Phenylcyclopropanol]", "values": [
      {"measurement": "conjugation to BSA", "setting": "[4]", "result": "efficiently conjugated"},
      {"measurement": "conjugation to lysozyme", "setting": "lysozyme", "result": "efficiently conjugated"},
      {"measurement": "conjugation to wt-TMV", "setting": "[5]; CPol derivative 10 eq., NaI, potential of 1.2 V", "result": "modified TMV peak ([M+132]^+) was found"},
      {"measurement": "conjugation to wt-TMV", "setting": "[5]; identical electrochemical conditions (1.2 V) without NaI", "result": "no reaction occurred"},
      {"measurement": "labeling of angiotensin I", "setting": "angiotensin I", "result": "successful labeling"},
      {"measurement": "modification of bivalirudin", "setting": "bivalirudin", "result": "effectively modified"}
    ]},
    {"smiles": "CCCCCC1(O)CC1", "note": "[Formula I-4, Pentylcyclopropanol]", "values": [
      {"measurement": "conjugation to BSA", "setting": "[4]", "result": "efficiently conjugated"},
      {"measurement": "conjugation to lysozyme", "setting": "lysozyme", "result": "efficiently conjugated"},
      {"measurement": "conjugation to wt-TMV", "setting": "[5]; NaBr, constant voltage 1.2 V", "result": "successfully modified"}
    ]},
    {"smiles": "OC1(c2ccc(C(F)(F)F)cc2)CC1", "note": "[Formula I-7, 1-(4-(trifluoromethyl)phenyl)cyclopropan-1-ol]", "values": [
      {"measurement": "conjugation to lysozyme", "setting": "lysozyme", "result": "efficiently conjugated"}
    ]},
    {"smiles": "[I-].[Na+]", "note": "[NaI, sodium iodide]", "values": [
      {"measurement": "cytotoxicity on Vero cells", "setting": "Vero cells [1]; NaI 0.01 to 10,000 μM", "result": "safely co-cultured"}
    ]}
  ]
}
